Several values for one entry are separate records, joined by “and”; a condition that tells them apart may be missing. Identical values can stand only once. Like-named read-outs stand apart in the source and are kept apart here.
Columns and labels:
[1] = test system: P. berghei ANKA GFP-Luc-SMcon sporozoites; test: P. berghei-luciferase liver stage bioluminescence assay (causal prophylactic mode) in HepG2-CD81 cells; format: cell-based, Plasmodium berghei
Procedure: (§1) Briefly, HepG2-CD81 cells were seeded into 1,536 well plates containing 50 nL of test and control compounds diluted into DMSO. […] Next, 2 μL of luciferin reagent (Promega BrightGlo) was added to each well and luciferase activity was detected using a Perkin Elmer Envision plate reader. […] In parallel, plates were processed without sporozoites for HepG2 toxicity measurements.
(§2) In continuation of the transmission blocking theme, it is important to establish activities against liver stage parasites. […] This assay uses ultra-high-throughput screening methods optimized for a 1536-well format and a HepG2 human hepatoma cell line. […] To establish selectivity of the compounds for the parasite in the liver stage of infection, cytotoxicity was determined by measuring bioluminescence from the reaction between free ATP of compound-treated, uninfected hepatocytes and a luciferase reporter system.

HepG2 cells = test: HepG2 cytotoxicity bioluminescence assay (CellTiterGlo, ATP); format: cell-based, human; settings: two biological replicates listed in one cell
Procedure: as §1, §2

[2] = as above; format: cell-based, human; settings: human, uninfected HepG2-CD81 cells
Procedure: as §1, §2

P. falciparum NF54 [3] = test: Proliferative (SYBR Green I) assay, asexual parasites, 96 h; format: cell-based; settings: Plasmodium falciparum, ±SEM
Procedure: (§3) P. falciparum parasites (NF54, K1, and W2) were cultured in vitro in human erythrocytes (A^+ or O^+) under 90% N2, 5% CO2, and 5% O2 atmospheric conditions with supplemented RPMI 1640 media (Sigma Aldrich) containing Albumax II, as previously described (Verlinden et al., [2011]). This study was carried out according the guidelines set out by the Faculty of Health Sciences Ethical Committee, Ethical Clearance no. EC-120821/077. The protocol was approved by the Faculty of Health sciences ethical committee at the University of Pretoria. All subjects gave written informed consent in accordance with the Declaration of Helsinki. Parasite proliferation was monitored microscopically using Giemsa stained smears. Synchronized ring stage parasites (>95%) were obtained using a 5% D-sorbitol (Sigma Aldrich) treatment. […] Gametocyte cultures were kept stationary under 90% N2, 5% CO2, and 5% O2 atmospheric conditions at 37°C and treated with 50 mM N-acetyl-glucosamine (NAG) to eliminate residual invasion of asexual parasites.
(§4) Working solutions of the derivatives were prepared from a 10 mM stock solution in 100% DMSO in supplemented RPMI 1640 media containing Albumax II with a final DMSO concentration of <0.1%, previously determined as being non-toxic to intraerythrocytic asexual parasites and gametocytes. Dose responses were assayed using a two-fold serial drug dilution on in vitro >95% ring stage intraerythrocytic P. falciparum parasites at 37°C under 90% N2, 5% CO2, and 5% O2 atmospheric conditions, detecting both parasite lactate dehydrogenase (pLDH) activity as a metabolic marker following a 48 h drug exposure (1.5–2% parasitemia and 2% hematocrit; Makler et al., [1993]) and SYBR Green I fluorescence as proliferative marker following a 96 h drug exposure (1% parasitemia and 1% hematocrit). […] Data analysis was performed using GraphPad Prism 7.

P. falciparum K1 = test: as above; format: cell-based; settings: Plasmodium falciparum, ±SEM
Procedure: as §3, §4

P. falciparum W2 = test: as above; format: cell-based; settings: Plasmodium falciparum, ±SEM
Procedure: as §3, §4

[4] = Cytotoxicity, Cytoselect LDH cytotoxicity assay kit; format: cell-based; settings: human, HepG2 cells
Procedure: (§5) Cytotoxicity (EC50) was determined against Chinese hamster ovarian (CHO) using a 3-(4,5-dimethylthiazol-2-yl)-2,5-diphenyltetrazolium bromide (MTT) assay and hepatocellular carcinoma cells (HepG2) using the Cytoselect LDH cytotoxicity assay kit (Cell Biolabs).

[5] = test system: P. falciparum NF54 late stage gametocytes (>90% stage IV and V); test: Gametocytocidal luciferase reporter assay, late stage, 72 h; format: cell-based, Plasmodium falciparum
Procedure: as §3
(§6) Gametocytocidal activity was determined using the luciferase reporter line (Reader et al., [2015]) to derive dose responses with two-fold serial drug dilutions for 48 h against early stage gametocytes (day 5 post-induction population, >90% stage I–III) and 10-fold serial drug dilutions for 72 h against late stage gametocytes (day 10 post-induction population, >90% late stage IV–V) (2% gametocytemia, 2% hematocrit), at 37°C under 90% N2, 5% CO2, and 5% O2 atmospheric conditions.

[6] = test system: P. falciparum NF54 early stage gametocytes (>90% stage I–III); test: Gametocytocidal luciferase reporter assay, early stage, 48 h; format: cell-based; settings: Plasmodium falciparum, NF54, 48 h, read-out: Early Stage (EG, Luc 48 h) IC50; >90% stage I–III gametocytes, ±SEM
Procedure: as §3, §6

[7] = test system: asexual P. falciparum NF54, Dd2, K1, W2; test: Asexual P. falciparum, metabolic (pLDH) and proliferative (SYBR Green I) platforms; format: cell-based; settings: Plasmodium falciparum; drug-sensitive and -resistant parasites, both assay platforms; read-out: IC50, asexual P. falciparum metabolic activity and proliferation
Procedure: Data analysis was performed using GraphPad Prism 7.
The in vitro activities of the new derivatives were determined against drug sensitive NF54 and multi-drug resistant Dd2, K1, and W2 intraerythrocytic asexual P. falciparum malaria parasite strains using both a metabolic (parasite LDH) and a proliferative (SYBR Green I fluorescence) assay readout (Table 1).

P. falciparum Dd2 = test: Metabolic (parasite LDH) assay, asexual ring stage parasites, 48 h; format: cell-based; settings: Plasmodium falciparum, pLDH, Dd2 CQ, pyrimethamine resistant
Procedure: as §4

P. falciparum NF54 [8] = test: as above; format: cell-based; settings: Plasmodium falciparum, pLDH, CQ-sensitive NF54
Procedure: as §3, §4

Cytotoxicity, MTT assay = format: cell-based; settings: Chinese hamster, CHO cells
Procedure: as §5

[9] = Plasmodium berghei, HepG2, 48 h, liver stage, HepG2 host cells, luciferase after 48 h, ±SD, read-out: P. berghei sporozoites IC50
[10] = Plasmodium falciparum, NF54, 72 h, read-out: Late Stage (LG, Luc 72 h) IC50, >90% stage IV and V gametocytes, ±SEM
[11] = read-out: Late Stage (LG, Luc 72 h) IC50, >90% stage IV and V gametocytes, ±SEM

| Compound | IC50 (P. falciparum NF54 [3]) | IC50 (P. falciparum K1) | IC50 (P. falciparum W2) | EC50 [4] | IC50 [5, 10] | IC50 [5, 11] | IC50 [6] | IC50 (P. falciparum Dd2) | IC50 (P. falciparum NF54 [8]) | EC50 (Cytotoxicity, MTT assay) | other results |
| --- | --- | --- | --- | --- | --- | --- | --- | --- | --- | --- | --- |
| CO[C@H]1O[C@@H]2O[C@@]3(C)CC[C@H]4[C@H](C)CC[C@@H]([C@H]1C)[C@@]24OO3 [Artemether 3, artemether] |  |  |  |  |  |  |  |  |  |  | IC50 [1, 9]: > 10000 nM; inhibition at 10 µM ([1]; Plasmodium berghei, Conc. 10 μM, read-out: P. berghei sporozoites Maximum inhibition %): 49.4% |
| O=C1C(O)=C([C@H]2CC[C@H](c3ccc(Cl)cc3)CC2)C(=O)c2ccccc21 [Atovaquone] |  |  |  |  |  |  |  |  |  |  | HepG2 Cytotoxicity Bioluminescence Assay: Maximum measured (%) (HepG2 cells): 16.9% and 8.57%; IC50 (HepG2 cells): > 250 nM; IC50 at 72 h ([2]; two biological replicates listed in one cell): > 250 nM; EC50 at 72 h ([2]; uninfected HepG2, ATP bioluminescence): > 250 nM; Emax ([1]; Plasmodium berghei, 48 h, two biological replicates listed in one cell, read-out: P.berghei-Luciferase Liver Stage Bioluminescence Assay: Maximum measured (%)): 92.9%; IC50 [1, 9]: 2.52 ± 0.997 nM; IC50 ([1]; Plasmodium berghei, two biological replicates listed in one cell, read-out: P.berghei-Luciferase Liver Stage Bioluminescence Assay: IC50): 3.23 nM; inhibition at 0.5 µM ([1]; Plasmodium berghei, Conc. 0.5 μM, read-out: P. berghei sporozoites Maximum inhibition %): 94.8 ± 2.76%; IC50 ([1]; two biological replicates listed in one cell, read-out: P.berghei-Luciferase Liver Stage Bioluminescence Assay: IC50): 1.81 nM |
| CCCCS(=O)(=O)N1CCN([C@@H]2O[C@@H]3O[C@@]4(C)CC[C@H]5[C@H](C)CC[C@@H]([C@H]2C)[C@@]35OO4)CC1 [Compound 13] | 2.7 ± 0.6 nM | 3.1 ± 0.1 nM | 4.4 ± 1 nM | 2720 nM | 0.4 to 0.7 nM | 0.5 ± 0.3 nM | 21.5 ± 10.4 nM |  |  |  |  |
| CCCCCCCCCCCCCCCCS(=O)(=O)N1CCN([C@@H]2O[C@@H]3O[C@@]4(C)CC[C@H]5[C@H](C)CC[C@@H]([C@H]2C)[C@@]35OO4)CC1 [Compound 14] |  |  |  |  |  |  |  |  |  |  | IC50 [7]: 50 to 100 nM |
| CC(=O)Nc1ccc(S(=O)(=O)N2CCN([C@@H]3O[C@@H]4O[C@@]5(C)CC[C@H]6[C@H](C)CC[C@@H]([C@H]3C)[C@@]46OO5)CC2)cc1 [Compound 15] | 2.7 ± 0.7 nM | 3.4 ± 0.3 nM | 5.4 ± 0.5 nM | 1950 nM |  |  | 8 ± 2.3 nM | 3.54 ± 0.32 nM | 1.3 ± 0.5 nM | > 177000 nM |  |
| C[C@H]1[C@H](N2CCN(S(=O)(=O)c3cccc(C(F)(F)F)c3)CC2)O[C@@H]2O[C@@]3(C)CC[C@H]4[C@H](C)CC[C@@H]1[C@@]24OO3 [Compound 16] | 3.4 ± 0.6 nM | 5 nM | 4.6 ± 0.2 nM | 431 nM | 0.4 to 0.7 nM | 0.4 ± 0.3 nM | 19.7 ± 9.9 nM | 7.46 ± 1.07 nM | 1.13 ± 0.12 nM | > 178000 nM |  |
| C[C@H]1[C@H](N2CCN(S(=O)(=O)c3cccc(F)c3)CC2)O[C@@H]2O[C@@]3(C)CC[C@H]4[C@H](C)CC[C@@H]1[C@@]24OO3 [Compound 17] | 3.1 ± 0.2 nM | 4.85 ± 1.1 nM | 4.6 ± 0.2 nM | 637 nM | 0.4 to 0.7 nM | 0.6 ± 0.4 nM | 13.1 ± 7.2 nM | 6.2 ± 0.7 nM | 2 ± 0.6 nM | > 196000 nM |  |
| C[C@H]1[C@H](N2CCN(S(=O)(=O)c3ccc(C(F)(F)F)cc3)CC2)O[C@@H]2O[C@@]3(C)CC[C@H]4[C@H](C)CC[C@@H]1[C@@]24OO3 [Compound 18] | 13.9 ± 1.2 nM | 22 ± 2.7 nM | 23.8 ± 1.4 nM | 217 nM | 4.8 ± 4.2 nM |  | 89.7 ± 28.8 nM | 74.3 ± 6.42 nM | 15.3 ± 2 nM | 154000 nM | IC50 [7]: 15 to 74 nM |

— publication PMC6967409 (Frontiers in Chemistry, 2020)
